Measurements from patent publication US8609661B2, “Pyrimido-pyrrolo-quinoxalinedione inhibitors of cystic fibrosis transmembrane conductance regulator protein and uses therefor” (The Regents of the University of California, priority 2009, dated 2013).

Tests used:
[1] = test system: calcium-activated chloride channels; assay: UTP-induced chloride currents in cystic fibrosis (CFTR-deficient) human bronchial epithelial cells; assay type: cell-based; details: 10 or 20 μM; UTP 100 μM
Method: FIG. 3A: Apical membrane current measured in CFTR-expressing FRT cells in the presence of a transepithelial chloride gradient and with amphotericin B permeabilization of the basolateral membrane. CFTR was activated by CPT-cAMP (chlorophenylthio-cAMP) (100 μM), with increasing concentrations of PPQ-102 added as shown. Left: Original recording. Right: Dose-response (S.E. n=4). FIG. 3B: Measurements as in FIG. 3A, but with apigenin (100 μM) or IBMX (100 μM) as agonists. The data are representative of 3 sets of experiments. FIG. 3C: Short-circuit current measured in T84 (left) and human bronchial airway epithelial cells (right). CFTR was maximally activated by 10 μM forskolin and 100 μM IBMX (‘forsk’). Current in the absence of inhibitor is indicated as ‘control.’ FIG. 3D: Calcium-activated chloride channels were activated by UTP (100 μM) in cystic fibrosis (CFTR-deficient) human bronchial epithelial cells, with PPQ-102 added as indicated. ENaC (epithelial sodium channel) was inhibited by amiloride (10 μM). FIG. 3E: Cellular cAMP assayed in CHO—K1 cells under basal conditions and after addition of 20 μM forskolin (S.E. n=4, differences with PPQ-102, not significant).

[2] = target: T1, human wildtype CFTR (Homo sapiens, UniProt P13569); assay: Fluorescence platereader assay of CFTR-mediated iodide influx (YFP quenching) in FRT cells; assay type: cell-based
T1 construct: expressed in transfected cells; host or cells: Fischer rat thyroid (FRT) cells
Method in brief: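 Fischer rat thyroid cells co-expressing human wildtype CFTR and the YFP-H148Q/1152L halide sensor were seeded at 20,000 cells per well in 96-well black-walled plates and assayed 48 h later at confluence. After PBS washes and a 15 min incubation, CFTR was maximally activated with an agonist mixture. Fluorescence was recorded for 2 s before and 10 s after adding 160 μL iodide-substituted PBS, and iodide influx rates came from non-linear regression.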

T1 sequence (P13569 whole entry): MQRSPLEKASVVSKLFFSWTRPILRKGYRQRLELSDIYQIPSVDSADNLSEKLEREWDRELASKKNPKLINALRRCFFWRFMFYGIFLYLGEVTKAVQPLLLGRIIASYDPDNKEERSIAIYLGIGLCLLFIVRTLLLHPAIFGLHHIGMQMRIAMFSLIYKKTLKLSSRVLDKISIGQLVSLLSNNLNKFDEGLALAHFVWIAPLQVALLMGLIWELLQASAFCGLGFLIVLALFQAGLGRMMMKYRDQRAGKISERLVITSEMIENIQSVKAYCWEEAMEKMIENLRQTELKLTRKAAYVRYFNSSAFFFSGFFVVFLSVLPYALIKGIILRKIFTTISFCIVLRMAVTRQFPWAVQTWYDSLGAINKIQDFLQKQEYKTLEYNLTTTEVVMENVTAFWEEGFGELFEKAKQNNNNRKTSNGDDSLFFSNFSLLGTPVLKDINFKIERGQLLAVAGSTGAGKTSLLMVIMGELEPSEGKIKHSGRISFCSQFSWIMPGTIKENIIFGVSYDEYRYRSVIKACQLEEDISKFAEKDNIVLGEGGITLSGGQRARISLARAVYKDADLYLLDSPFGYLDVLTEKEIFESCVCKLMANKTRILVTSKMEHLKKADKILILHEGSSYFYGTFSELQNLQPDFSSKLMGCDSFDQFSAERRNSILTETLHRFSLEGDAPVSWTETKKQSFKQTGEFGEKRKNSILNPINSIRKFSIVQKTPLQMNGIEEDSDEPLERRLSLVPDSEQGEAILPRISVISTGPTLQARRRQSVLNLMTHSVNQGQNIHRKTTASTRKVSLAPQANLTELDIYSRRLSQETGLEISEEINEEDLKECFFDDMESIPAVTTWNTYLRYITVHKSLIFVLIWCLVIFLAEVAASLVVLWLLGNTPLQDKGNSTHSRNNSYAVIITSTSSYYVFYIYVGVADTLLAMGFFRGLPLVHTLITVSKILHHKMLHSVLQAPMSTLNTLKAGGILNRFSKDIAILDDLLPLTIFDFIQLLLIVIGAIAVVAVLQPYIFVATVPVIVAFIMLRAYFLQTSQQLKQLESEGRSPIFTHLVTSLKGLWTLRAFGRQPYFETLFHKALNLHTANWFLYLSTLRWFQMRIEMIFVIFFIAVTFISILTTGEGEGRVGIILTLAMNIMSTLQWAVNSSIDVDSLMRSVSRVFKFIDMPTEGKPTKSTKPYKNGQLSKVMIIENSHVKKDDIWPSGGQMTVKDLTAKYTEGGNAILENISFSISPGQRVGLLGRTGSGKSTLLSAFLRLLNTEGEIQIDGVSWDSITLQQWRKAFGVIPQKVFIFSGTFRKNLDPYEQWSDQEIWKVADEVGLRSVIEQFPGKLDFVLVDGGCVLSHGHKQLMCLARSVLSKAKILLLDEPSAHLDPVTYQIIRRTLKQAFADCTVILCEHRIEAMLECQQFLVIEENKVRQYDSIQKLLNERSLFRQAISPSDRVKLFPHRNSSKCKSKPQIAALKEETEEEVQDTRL

Cc1ccc(C2Nc3ccccc3-n3c(-c4ccccc4)c4c(=O)n(C)c(=O)n(C)c4c32)o1 (racemic) [PPQ-102, 7,9-Dimethyl-11-phenyl-6-(5-methylfuran-2-yl)-5,6-dihydro-pyrimido[4′,5′-3,4]pyrrolo[1,2-a]quinoxaline-8,10-(7H,9H)-dione]
inhibition of UTP-induced chloride currents [1]: little inhibition
inhibition at 5 µM ([2]; FRT, Table 2, screening, 5 μM, read-out: % Inhibition at 5 μM): 85%
inhibition at 25 µM ([2]; FRT, Table 2, screening, 25 μM, read-out: % Inhibition at 25 μM): 97%
IC50 ([2]; apparent IC50 from concentration-inhibition data, fluorescence platereader assay): 800 nM
